Results as given in PubChem BioAssay AID248 (DTP/NCI, 2004).
“And” between values parts separate entries of the source, which are not always exact repeats. Equal values may be shown once. Inconclusive results and toxic doses are left out. Square brackets hold non-standard residues; d marks the D form. Peptide text beside a SMILES is read from it. * marks the point of attachment. ξ: configuration not given here. Cbz = O=C(OCc1ccccc1)*; ξM = CSCCC(N)C(=O)O

Test system: L1210 leukemia ip in BDF1 mice, survival T/C
Assay: NCI In Vivo Anticancer Drug Screen. Data for tumor model L1210 Leukemia (intraperitoneal) in B6D2F1 (BDF1) mice
Conditions: endpoint: mean survival time, higher = longer survival
In short: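 Each compound was tested against a transplantable tumor grown in mice. The endpoint was survival, with treated animals benchmarked against vehicle controls as a simple ratio.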

CC(/C=N/NC1=NCCN1)=N/NC1=NCCN1
T/C (dose: 15.7 mg/kg/injection, schedule: Q01DX Z (ip), vehicle: carboxymethylcellulose (CMC)): 104 % of control | T/C (dose: 31.5 mg/kg/injection, schedule: Q01DX Z (ip), vehicle: carboxymethylcellulose (CMC)): 101 % of control | T/C (dose: 63.0 mg/kg/injection, schedule: Q01DX Z (ip), vehicle: carboxymethylcellulose (CMC)): 102 % of control | T/C (dose: 126.0 mg/kg/injection, schedule: Q01DX Z (ip), vehicle: carboxymethylcellulose (CMC)): 103 % of control | T/C (dose: 127.0 mg/kg/injection, schedule: Q01DX Z (ip), vehicle: carboxymethylcellulose (CMC)): 106 % of control

O=NN(CCCl)C(=O)Nc1ccc(Cn2ccc(=O)[nH]c2=O)cc1
T/C (dose: 18.0 mg/kg/injection, schedule: Q01DX001 (ip), vehicle: carboxymethylcellulose (CMC)): 164 % of control | T/C (dose: 23.0 mg/kg/injection, schedule: Q01DX001 (ip), vehicle: carboxymethylcellulose (CMC)): 185 % of control | T/C (dose: 26.0 mg/kg/injection, schedule: Q01DX001 (ip), vehicle: carboxymethylcellulose (CMC)): 152 % of control | T/C (dose: 31.0 mg/kg/injection, schedule: Q01DX001 (ip), vehicle: carboxymethylcellulose (CMC)): 189 % of control | T/C (dose: 40.0 mg/kg/injection, schedule: Q01DX001 (ip), vehicle: carboxymethylcellulose (CMC)): 178 % of control | T/C (dose: 46.0 mg/kg/injection, schedule: Q01DX001 (ip), vehicle: carboxymethylcellulose (CMC)): 179 % of control | T/C (dose: 60.0 mg/kg/injection, schedule: Q01DX001 (ip), vehicle: carboxymethylcellulose (CMC)): 200 % of control | T/C (dose: 62.0 mg/kg/injection, schedule: Q01DX001 (ip), vehicle: carboxymethylcellulose (CMC)): 167 % of control | T/C (dose: 90.0 mg/kg/injection, schedule: Q01DX001 (ip), vehicle: carboxymethylcellulose (CMC)): 207 % of control | T/C (dose: 125.0 mg/kg/injection, schedule: Q01DX001 (ip), vehicle: carboxymethylcellulose (CMC)): 107 % of control | T/C (dose: 187.0 mg/kg/injection, schedule: Q01DX001 (ip), vehicle: carboxymethylcellulose (CMC)): 93 % of control

COC(=O)C(CCSC)NC(=O)CNC(=O)CNC(=O)OCc1ccccc1 (stereo not drawn) (Cbz-Gly-Gly-[ξM]-OMe)
T/C (dose: 100.0 mg/kg/injection, schedule: Q04DX003 (ip), vehicle: saline with Tween-80): 106 % of control | T/C (dose: 200.0 mg/kg/injection, schedule: Q04DX003 (ip), vehicle: saline with Tween-80): 101 % of control | T/C (dose: 400.0 mg/kg/injection, schedule: Q04DX003 (ip), vehicle: saline with Tween-80): 95 % of control

COc1ccc(-n2c(=O)c(N=Nc3ccc(Br)cc3)c(O)n(-c3ccccc3OC)c2=S)cc1
T/C (dose: 50.0 mg/kg/injection, schedule: Q01DX001 (ip), vehicle: Klucel (hydroxypropylcellulose) (HPC)): 106 % of control | T/C (dose: 100.0 mg/kg/injection, schedule: Q01DX001 (ip), vehicle: Klucel (hydroxypropylcellulose) (HPC)): 103 % of control | T/C (dose: 200.0 mg/kg/injection, schedule: Q01DX001 (ip), vehicle: Klucel (hydroxypropylcellulose) (HPC)): 103 % of control

CCOc1ccc2nc(S(N)(=O)=O)sc2c1
T/C (dose: 100.0 mg/kg/injection, schedule: Q01DX Z (ip), vehicle: saline): 100 % of control | T/C (dose: 200.0 mg/kg/injection, schedule: Q01DX Z (ip), vehicle: saline): 97 % of control | T/C (dose: 400.0 mg/kg/injection, schedule: Q01DX Z (ip), vehicle: saline): 111 % of control

Cc1cc(OC(=O)Nc2ccc(F)cc2)c(C(C)C)cc1Cl
T/C (dose: 50.0 mg/kg/injection, schedule: Q01DX001 (ip), vehicle: carboxymethylcellulose (CMC)): 90 % of control | T/C (dose: 50.0 mg/kg/injection, schedule: Q01DX009 (ip), vehicle: carboxymethylcellulose (CMC)): 99 % of control and 101 % of control | T/C (dose: 50.0 mg/kg/injection, schedule: Q04DX002 (ip), vehicle: carboxymethylcellulose (CMC)): 93 % of control and 96 % of control | T/C (dose: 100.0 mg/kg/injection, schedule: Q01DX001 (ip), vehicle: carboxymethylcellulose (CMC)): 103 % of control | T/C (dose: 100.0 mg/kg/injection, schedule: Q01DX009 (ip), vehicle: carboxymethylcellulose (CMC)): 96 % of control and 99 % of control | T/C (dose: 100.0 mg/kg/injection, schedule: Q04DX002 (ip), vehicle: carboxymethylcellulose (CMC)): 100 % of control and 106 % of control | T/C (dose: 200.0 mg/kg/injection, schedule: Q01DX001 (ip), vehicle: carboxymethylcellulose (CMC)): 92 % of control | T/C (dose: 200.0 mg/kg/injection, schedule: Q01DX009 (ip), vehicle: carboxymethylcellulose (CMC)): 94 % of control and 95 % of control | T/C (dose: 200.0 mg/kg/injection, schedule: Q04DX002 (ip), vehicle: carboxymethylcellulose (CMC)): 95 % of control and 100 % of control

CCCCC(CC)NC(=O)c1ccc(OC)cc1 (stereo not drawn)
T/C (dose: 12.5 mg/kg/injection, schedule: Q01DX009 (ip), vehicle: Klucel (hydroxypropylcellulose) (HPC)): 106 % of control | T/C (dose: 25.0 mg/kg/injection, schedule: Q01DX009 (ip), vehicle: Klucel (hydroxypropylcellulose) (HPC)): 101 % of control | T/C (dose: 25.0 mg/kg/injection, schedule: Q04DX003 (ip), vehicle: Klucel (hydroxypropylcellulose) (HPC)): 105 % of control | T/C (dose: 50.0 mg/kg/injection, schedule: Q01DX009 (ip), vehicle: Klucel (hydroxypropylcellulose) (HPC)): 95 % of control | T/C (dose: 50.0 mg/kg/injection, schedule: Q04DX003 (ip), vehicle: Klucel (hydroxypropylcellulose) (HPC)): 103 % of control | T/C (dose: 100.0 mg/kg/injection, schedule: Q01DX009 (ip), vehicle: Klucel (hydroxypropylcellulose) (HPC)): 101 % of control | T/C (dose: 100.0 mg/kg/injection, schedule: Q04DX003 (ip), vehicle: Klucel (hydroxypropylcellulose) (HPC)): 100 % of control | T/C (dose: 200.0 mg/kg/injection, schedule: Q04DX003 (ip), vehicle: Klucel (hydroxypropylcellulose) (HPC)): 103 % of control | T/C (dose: 400.0 mg/kg/injection, schedule: Q04DX003 (ip), vehicle: Klucel (hydroxypropylcellulose) (HPC)): 100 % of control
